From ChEMBL document CHEMBL4052617, “Antibacterial activity of N-methylbenzofuro[3,2-b]quinoline and N-methylbenzoindolo[3,2-b]-quinoline derivatives and study of their mode of action” (2017)
Converted amounts (≈) assume the structure as drawn.

Columns and labels:
Assay type in all cases: functional
[1] = system: Bacillus subtilis; experiment: Antibacterial activity against Bacillus subtilis 168 after 18 hrs by Mueller-Hinton broth microdilution method; conditions: subsp. subtilis str. 168, 18 h
[2] = system: Staphylococcus aureus; experiment: Antibacterial activity against Staphylococcus aureus ATCC 29213 after 18 hrs by cation adjusted Mueller-Hinton broth microdilution method; conditions: ATCC 29213, 18 h
[3] = system: Staphylococcus aureus; experiment: Antibacterial activity against methicillin-resistant Staphylococcus aureus ATCC BAA41 after 18 hrs by cation adjusted Mueller-Hinton broth microdilution method; conditions: ATCC BAA41, 18 h
[4] = system: Escherichia coli; experiment: Antibacterial activity against Escherichia coli ATCC 25922 after 18 hrs by Mueller-Hinton broth microdilution method; conditions: ATCC 25922, 18 h
[5] = system: Escherichia coli; experiment: Antibacterial activity against Escherichia coli ATCC […] expressing NDM-1 beta-lactamase after 18 hrs by Mueller-Hinton broth microdilution method
[6] = system: Pseudomonas aeruginosa; experiment: Antibacterial activity against multidrug-resistant Pseudomonas aeruginosa ATCC BAA2108 after 18 hrs by Mueller-Hinton broth microdilution method; conditions: ATCC BAA2108, 18 h
[7] = system: Klebsiella pneumoniae; experiment: Antibacterial activity against Klebsiella pneumoniae ATCC BAA2470 expressing NDM-1 beta-lactamase after 18 hrs by Mueller-Hinton broth microdilution method; conditions: ATCC BAA2470, 18 h
[8] = system: Enterococcus faecium; experiment: Antibacterial activity against antibiotic-susceptile Enterococcus faecium ATCC 49624 after 18 hrs by brain heart infusion broth microdilution method; conditions: ATCC 49624, 18 h
[9] = system: Enterococcus faecium; experiment: Antibacterial activity against vancomycin-resistant Enterococcus faecium ATCC 700221 after 18 hrs by brain heart infusion broth microdilution method; conditions: ATCC 700221, 18 h

Compound	MIC [1] [µg/mL]	MIC [2] [µg/mL]	MIC [3] [µg/mL]	MIC [4] [µg/mL]	MIC [5] [µg/mL]	MIC [6] [µg/mL]	MIC [7] [µg/mL]	MIC [8] [µg/mL]	MIC [9] [µg/mL]
COc1cccc(OC)c1C(=O)N[C@@H]1C(=O)N2[C@@H]1SC(C)(C)[C@@H]2C(=O)O [METHICILLIN]	0.5 (≈ 1.31 µM)	1 (≈ 2.63 µM)	> 192	4 (≈ 10.5 µM)	> 192	> 192	> 192	–	–
Cc1ccccc1Nc1c2ccccc2[n+](C)c2c1[nH]c1ccccc12.[I-]	6	6	6	12	12	> 64	> 64	8	8
Cc1ccc(Nc2c3ccccc3[n+](C)c3c2[nH]c2ccccc23)cc1.[I-]	4	4	4	8	8	64	64	6	6
CCOc1ccccc1Nc1c2ccccc2[n+](C)c2c1oc1ccccc12.[I-]	6	6	6	12	12	> 64	> 64	8	8
CCOc1ccc(Nc2c3ccccc3[n+](C)c3c2oc2ccccc23)cc1.[I-]	4	4	4	8	8	64	64	8	8
Cc1cc(C)cc(Nc2c3ccccc3[n+](C)c3c2[nH]c2ccccc23)c1.[I-]	4	4	4	8	8	> 64	> 64	8	8
Cc1ccc(Nc2c3ccccc3[n+](C)c3c2oc2ccccc23)cc1F.[I-]	6	6	6	12	12	> 64	> 64	8	8
Cc1ccc(Nc2c3ccccc3[n+](C)c3c2oc2ccccc23)cc1.[I-]	6	6	6	12	12	> 64	> 64	8	8
Cc1cc(F)ccc1Nc1c2ccccc2[n+](C)c2c1[nH]c1ccccc12.[I-]	4	4	4	8	8	64	64	8	8
Cc1cc(F)ccc1Nc1c2ccccc2[n+](C)c2c1oc1ccccc12.[I-]	6	6	6	12	12	> 64	> 64	8	8
CCc1ccc(Nc2c3ccccc3[n+](C)c3c2oc2ccccc23)cc1.[I-]	6	6	6	12	12	> 64	> 64	8	8
C[n+]1c2ccccc2c(Nc2ccc(Cl)cc2)c2oc3ccccc3c21.[I-]	6	6	6	12	12	> 64	> 64	8	8
CN[C@H](CC(C)C)C(=O)N[C@H]1C(=O)N[C@@H](CC(N)=O)C(=O)N[C@H]2C(=O)N[C@H]3C(=O)N[C@H](C(=O)N[C@H](C(=O)O)c4cc(O)cc(O)c4-c4cc3ccc4O)[C@H](O)c3ccc(c(Cl)c3)Oc3cc2cc(c3O[C@@H]2O[C@H](CO)[C@@H](O)[C@H](O)[C@H]2O[C@H]2C[C@](C)(N)[C@H](O)[C@H](C)O2)Oc2ccc(cc2Cl)[C@H]1O [VANCOMYCIN]	1 (≈ 0.69 µM)	–	–	2 (≈ 1.38 µM)	6 (≈ 4.14 µM)	> 64	> 64	–	> 64
